The values below come from publication PMC11649521 (The Journal of Physiology, 2024).

Each structure is given as a SMILES string.

Common to all, as to assay: cell-based
Conditions in all cases: read-out: % block at 1 μM PhTx

Experiment [1] addresses B/β (type-B iGluR/Neto-β; GluRIIB/C/D/E + Neto-β) (Drosophila melanogaster, UniProt Q0KI42+Q7KSB1+Q9VMP3+Q9VPV3).
Experiment [2] concerns the target B/α (type-B iGluR/Neto-α; GluRIIB/C/D/E + Neto-α) (Drosophila melanogaster, UniProt Q0KI42+Q7KSB1+Q9VMP3+Q9VPV3).
Experiment [3] deals with A/β (type-A iGluR/Neto-β; GluRIIA/C/D/E + Neto-β) (Drosophila melanogaster, UniProt Q0KI42+Q7KSB1+Q9VMP4+Q9VPV3).

B/α (type-B iGluR/Neto-α; GluRIIB/C/D/E + Neto-α), sequence (Q9VMP3 19-913): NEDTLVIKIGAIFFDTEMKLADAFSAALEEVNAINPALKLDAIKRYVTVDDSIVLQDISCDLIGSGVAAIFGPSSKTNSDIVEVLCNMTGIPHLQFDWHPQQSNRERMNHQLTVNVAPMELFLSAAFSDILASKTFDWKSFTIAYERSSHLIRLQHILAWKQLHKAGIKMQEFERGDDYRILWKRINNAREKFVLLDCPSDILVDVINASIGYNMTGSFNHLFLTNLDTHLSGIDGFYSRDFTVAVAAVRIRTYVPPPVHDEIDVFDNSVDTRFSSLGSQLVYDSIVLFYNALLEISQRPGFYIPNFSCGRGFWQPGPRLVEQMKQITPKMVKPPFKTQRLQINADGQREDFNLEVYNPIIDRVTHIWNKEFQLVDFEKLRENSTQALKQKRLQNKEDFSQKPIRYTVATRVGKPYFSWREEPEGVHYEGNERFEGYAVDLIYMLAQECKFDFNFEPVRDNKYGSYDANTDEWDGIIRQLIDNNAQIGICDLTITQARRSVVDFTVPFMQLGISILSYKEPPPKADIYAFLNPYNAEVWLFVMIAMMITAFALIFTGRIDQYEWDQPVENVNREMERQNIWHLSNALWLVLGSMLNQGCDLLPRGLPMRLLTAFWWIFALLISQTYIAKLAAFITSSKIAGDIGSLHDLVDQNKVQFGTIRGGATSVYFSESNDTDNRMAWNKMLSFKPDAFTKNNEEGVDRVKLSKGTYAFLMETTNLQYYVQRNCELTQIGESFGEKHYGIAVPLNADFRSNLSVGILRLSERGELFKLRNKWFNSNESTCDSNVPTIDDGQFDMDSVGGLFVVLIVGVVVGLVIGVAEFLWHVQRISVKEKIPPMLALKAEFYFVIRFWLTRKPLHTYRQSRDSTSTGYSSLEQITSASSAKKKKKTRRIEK
B/α (type-B iGluR/Neto-α; GluRIIB/C/D/E + Neto-α), sequence (Q9VPV3 23-940): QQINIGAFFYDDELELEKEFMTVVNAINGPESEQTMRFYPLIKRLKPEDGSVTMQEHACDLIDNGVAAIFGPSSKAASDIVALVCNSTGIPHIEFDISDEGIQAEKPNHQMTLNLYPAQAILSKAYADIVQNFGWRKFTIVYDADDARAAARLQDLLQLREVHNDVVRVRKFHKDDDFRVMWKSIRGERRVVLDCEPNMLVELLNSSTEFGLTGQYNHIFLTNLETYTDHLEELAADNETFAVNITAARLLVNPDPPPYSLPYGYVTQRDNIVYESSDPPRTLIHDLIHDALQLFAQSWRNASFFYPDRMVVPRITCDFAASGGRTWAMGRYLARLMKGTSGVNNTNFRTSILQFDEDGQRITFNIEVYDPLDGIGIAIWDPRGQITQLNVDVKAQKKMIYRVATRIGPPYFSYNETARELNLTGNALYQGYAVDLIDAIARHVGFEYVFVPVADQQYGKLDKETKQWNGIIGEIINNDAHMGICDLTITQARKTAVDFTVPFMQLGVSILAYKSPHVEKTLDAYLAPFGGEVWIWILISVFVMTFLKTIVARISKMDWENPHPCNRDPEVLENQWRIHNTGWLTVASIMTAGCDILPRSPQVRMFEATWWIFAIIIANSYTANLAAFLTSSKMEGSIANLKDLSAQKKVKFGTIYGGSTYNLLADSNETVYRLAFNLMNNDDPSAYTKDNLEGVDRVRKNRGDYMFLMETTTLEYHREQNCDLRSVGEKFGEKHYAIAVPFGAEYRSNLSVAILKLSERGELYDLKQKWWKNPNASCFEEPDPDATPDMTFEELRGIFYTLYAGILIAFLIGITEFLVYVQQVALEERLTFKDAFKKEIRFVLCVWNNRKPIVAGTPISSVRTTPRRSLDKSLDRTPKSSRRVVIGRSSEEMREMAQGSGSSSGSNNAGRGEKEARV
B/α (type-B iGluR/Neto-α; GluRIIB/C/D/E + Neto-α), sequence (Q7KSB1 19-902): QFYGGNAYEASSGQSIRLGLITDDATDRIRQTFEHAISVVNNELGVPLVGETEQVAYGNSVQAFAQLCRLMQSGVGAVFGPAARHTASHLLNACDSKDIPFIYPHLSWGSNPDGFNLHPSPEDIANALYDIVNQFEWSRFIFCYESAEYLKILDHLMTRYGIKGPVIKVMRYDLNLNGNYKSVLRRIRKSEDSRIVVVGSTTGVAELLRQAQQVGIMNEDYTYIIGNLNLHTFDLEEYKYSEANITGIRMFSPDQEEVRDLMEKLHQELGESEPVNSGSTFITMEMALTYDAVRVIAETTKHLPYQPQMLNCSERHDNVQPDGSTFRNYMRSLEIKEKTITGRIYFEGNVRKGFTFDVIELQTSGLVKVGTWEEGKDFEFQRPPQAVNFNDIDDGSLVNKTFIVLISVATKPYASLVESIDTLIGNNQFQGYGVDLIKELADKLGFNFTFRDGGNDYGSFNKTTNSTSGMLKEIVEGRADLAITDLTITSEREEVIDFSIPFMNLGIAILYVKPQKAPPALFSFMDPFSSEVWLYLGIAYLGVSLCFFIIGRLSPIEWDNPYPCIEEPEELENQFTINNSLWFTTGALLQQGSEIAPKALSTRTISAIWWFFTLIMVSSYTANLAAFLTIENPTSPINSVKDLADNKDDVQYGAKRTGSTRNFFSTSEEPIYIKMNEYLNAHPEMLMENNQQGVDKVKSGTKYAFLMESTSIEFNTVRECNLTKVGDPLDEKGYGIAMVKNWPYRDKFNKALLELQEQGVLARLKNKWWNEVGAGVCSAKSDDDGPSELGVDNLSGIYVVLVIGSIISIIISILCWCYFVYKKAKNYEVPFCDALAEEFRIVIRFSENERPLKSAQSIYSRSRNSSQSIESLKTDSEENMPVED
B/α (type-B iGluR/Neto-α; GluRIIB/C/D/E + Neto-α), sequence (Q0KI42 23-897): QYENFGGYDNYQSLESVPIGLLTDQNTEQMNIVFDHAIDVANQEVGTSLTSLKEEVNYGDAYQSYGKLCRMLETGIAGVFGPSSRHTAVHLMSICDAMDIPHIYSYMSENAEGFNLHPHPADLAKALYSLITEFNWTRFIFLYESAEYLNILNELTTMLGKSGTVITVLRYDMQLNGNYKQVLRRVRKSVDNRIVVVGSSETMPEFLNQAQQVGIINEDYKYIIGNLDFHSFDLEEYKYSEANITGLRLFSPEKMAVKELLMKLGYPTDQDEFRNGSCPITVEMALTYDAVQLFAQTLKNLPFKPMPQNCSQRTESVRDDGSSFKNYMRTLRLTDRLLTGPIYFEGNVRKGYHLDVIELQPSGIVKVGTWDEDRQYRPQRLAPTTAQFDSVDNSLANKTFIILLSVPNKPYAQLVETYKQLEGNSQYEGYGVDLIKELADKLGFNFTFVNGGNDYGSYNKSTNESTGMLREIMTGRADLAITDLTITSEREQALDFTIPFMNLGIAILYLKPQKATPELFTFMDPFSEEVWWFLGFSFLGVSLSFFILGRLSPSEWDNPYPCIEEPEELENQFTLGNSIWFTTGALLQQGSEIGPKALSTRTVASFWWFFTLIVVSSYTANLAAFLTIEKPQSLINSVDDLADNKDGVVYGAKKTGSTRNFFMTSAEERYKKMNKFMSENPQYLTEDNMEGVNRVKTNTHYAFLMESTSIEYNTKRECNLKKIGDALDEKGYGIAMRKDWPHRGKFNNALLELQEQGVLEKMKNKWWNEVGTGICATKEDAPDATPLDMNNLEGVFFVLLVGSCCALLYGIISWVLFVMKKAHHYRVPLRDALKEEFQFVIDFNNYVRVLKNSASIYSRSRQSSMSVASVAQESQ
B/α (type-B iGluR/Neto-α; GluRIIB/C/D/E + Neto-α), sequence (Q9VYC7 127-677 partner): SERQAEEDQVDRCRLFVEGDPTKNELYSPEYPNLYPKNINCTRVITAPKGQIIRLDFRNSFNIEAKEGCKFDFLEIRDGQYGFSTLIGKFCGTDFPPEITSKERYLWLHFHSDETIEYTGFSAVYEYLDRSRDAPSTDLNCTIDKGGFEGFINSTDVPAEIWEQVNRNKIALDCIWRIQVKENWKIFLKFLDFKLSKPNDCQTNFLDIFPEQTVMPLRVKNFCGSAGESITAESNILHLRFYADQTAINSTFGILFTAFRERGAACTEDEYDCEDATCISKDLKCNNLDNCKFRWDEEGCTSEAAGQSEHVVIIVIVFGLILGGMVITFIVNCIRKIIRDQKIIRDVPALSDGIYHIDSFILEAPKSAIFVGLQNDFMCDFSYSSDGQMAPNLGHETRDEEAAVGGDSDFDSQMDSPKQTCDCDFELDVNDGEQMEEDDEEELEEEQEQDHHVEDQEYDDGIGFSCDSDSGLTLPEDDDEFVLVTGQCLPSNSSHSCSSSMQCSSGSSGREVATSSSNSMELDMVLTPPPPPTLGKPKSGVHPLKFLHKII
B/β (type-B iGluR/Neto-β; GluRIIB/C/D/E + Neto-β), sequence (Q9VMP3 19-913): as the sequence (Q9VMP3 19-913) above
B/β (type-B iGluR/Neto-β; GluRIIB/C/D/E + Neto-β), sequence (Q9VPV3 23-940): as the sequence (Q9VPV3 23-940) above
B/β (type-B iGluR/Neto-β; GluRIIB/C/D/E + Neto-β), sequence (Q7KSB1 19-902): as the sequence (Q7KSB1 19-902) above
B/β (type-B iGluR/Neto-β; GluRIIB/C/D/E + Neto-β), sequence (Q0KI42 23-897): as the sequence (Q0KI42 23-897) above
B/β (type-B iGluR/Neto-β; GluRIIB/C/D/E + Neto-β), sequence (X2JDL4 127-822 partner limits assumed): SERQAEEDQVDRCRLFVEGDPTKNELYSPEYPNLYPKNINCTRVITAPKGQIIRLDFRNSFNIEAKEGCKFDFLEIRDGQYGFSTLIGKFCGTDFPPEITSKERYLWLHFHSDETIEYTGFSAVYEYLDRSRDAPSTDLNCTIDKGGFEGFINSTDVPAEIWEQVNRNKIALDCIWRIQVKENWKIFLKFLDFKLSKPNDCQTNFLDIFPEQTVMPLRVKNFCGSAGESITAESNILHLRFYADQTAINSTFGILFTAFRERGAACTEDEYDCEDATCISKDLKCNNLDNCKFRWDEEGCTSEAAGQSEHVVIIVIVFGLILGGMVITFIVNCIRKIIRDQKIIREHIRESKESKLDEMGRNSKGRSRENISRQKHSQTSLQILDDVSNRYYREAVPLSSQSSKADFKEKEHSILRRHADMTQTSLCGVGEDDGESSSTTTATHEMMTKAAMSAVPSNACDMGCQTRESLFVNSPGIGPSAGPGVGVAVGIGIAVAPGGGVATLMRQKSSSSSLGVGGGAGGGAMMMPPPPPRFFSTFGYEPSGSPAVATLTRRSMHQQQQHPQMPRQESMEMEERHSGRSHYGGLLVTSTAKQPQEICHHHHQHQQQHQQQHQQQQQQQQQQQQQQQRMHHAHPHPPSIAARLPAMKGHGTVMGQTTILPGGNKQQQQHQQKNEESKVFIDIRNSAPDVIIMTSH

Consider `CCCC(=O)N[C@@H](Cc1ccc(O)cc1)C(=O)NCCCNCCCCNCCCN` [PhTx, philanthotoxin‐343], for which the inhibition at 1 µM stood at 74.7 ± 1.72% in experiment [1], 83.3 ± 5.07% in experiment [2] and 98.8 ± 0.67% in experiment [3].
